Data reported in US8916592B2, “Malononitrile compounds” (Merial Limited, priority 2005, dated 2014).

What was measured:
Format in all cases: in vivo
[1] = tested on: Brown Planthopper (Nilaparvata lugens); assay: Activity against Brown Planthopper (sprayed rice seedlings); details: 300 ppm, 10 adults, recorded after 24, 72 and 120 hours
Method: The active compounds were formulated in 50:50 acetone:water. Potted rice seedlings were sprayed with 10 ml test solution, air dried, placed in cages and inoculated with 10 adults. Percent mortality was recorded after 24, 72 and 120 hours.

[2] = tested on: Boll Weevil (Anthonomus grandis); assay: Activity against Boll Weevil (eggs sprayed in microtiterplates); details: 3 to 5 days, untreated controls 0% mortality
Method: The active compounds were formulated in 1:3 DMSO:water. 10 to 15 eggs were placed into microtiterplates filled with 2% agar-agar in water and 300 ppm formaline. The eggs were sprayed with 20 μl of the test solution, the plates were sealed with pierced foils and kept at 24-26° C. and 75-85% humidity with a day/night cycle for 3 to 5 days. Mortality was assessed on the basis of the remaining unhatched eggs or larvae on the agar surface and/or quantity and depth of the digging channels caused by the hatched larvae. Tests were replicated 2 times.

[3] = tested on: Mediterranean Fruitfly (Ceratitis capitata); assay: Activity against Mediterranean Fruitfly (eggs sprayed in microtiterplates); details: 144 h, 6 days, untreated controls 0% mortality
Method: The active compounds were formulated in 1:3 DMSO:water. 50 to 80 eggs were placed into microtiterplates filled with 0.5% agar-agar and 14% diet in water. The eggs were sprayed with 5 μl of the test solution, the plates were sealed with pierced foils and kept at 27-29° C. and 75-85% humidity under fluorescent light for 6 days. Mortality was assessed on the baswas of the agility of the hatched larvae. Tests were replicated 2 times.

[4] = tested on: Vetch Aphid (Megoura viciae); assay: Activity against Vetch Aphid (sprayed bean leaf disks); details: foliar, 144 h, adult aphids, 6 days, untreated controls 0% mortality
Method: The active compounds were formulated in 1:3 DMSO:water. Bean leaf disks were placed into microtiterplates filled with 0.8% agar-agar and 2.5 ppm OPUS™. The leaf disks were sprayed with 2.5 μl of the test solution and 5 to 8 adult aphids were placed into the microtiterplates which were then closed and kept at 22-24° C. and 35-45% under fluorescent light for 6 days. Mortality was assessed on the basis of vital, reproduced aphids. Tests were replicated 2 times.

SMILES | mortality [1] | mortality at 2500 ppm [2] [%] | mortality at 2500 ppm [3] [%] | mortality at 2500 ppm [4] [%]
CC(C)(C)c1cc(CC(C#N)(C#N)CCSC(F)(F)F)on1 [Compound I-35] | over 90% | – | – | –
N#CC(C#N)(CCS(=O)(=O)C(F)(F)F)Cc1ccc(Cl)c(Cl)c1 [Compound I-19, 2-(3,4-Dichlorobenzyl)-2-(2-trifluoromethanesulfonyl-ethyl)-malononitrile] | – | > 75 | > 75 | –
N#CC(C#N)(CC[S+]([O-])C(F)(F)F)Cc1ccc(Cl)c(Cl)c1 (stereo not shown) [Compound I-15, 2-(3,4-Dichlorobenzyl)-2-(2-trifluoromethanesulfinyl-ethyl)-malononitrile] | – | > 75 | > 75 | –
N#CC(C#N)(CCSC(F)(F)F)Cc1ccc(Cl)c(Cl)c1 [Compound I-7, 2-(3,4-Dichloro-benzyl)-2-(2-trifluoromethylsulfanyl-ethyl)-malononitrile] | – | > 75 | > 75 | > 75
N#CC(C#N)(CSC(F)(F)F)Cc1ccc(Cl)c(Cl)c1 [Compound I-1, 2-(3,4-dichloro-benzyl)-2-trifluoromethylsulfanylmethyl-malononitrile] | – | > 75 | > 75 | –
